Results published in patent US4215043A, “Bicyclomycin derivatives” (Fujisawa Pharmaceutical Co., Ltd., priority 1975, dated 1980).

System: Escherichia coli strain 1075
Test: Protecting effect in experimental mice infections (E. coli strain 1075)
Assay type: in vivo
Conditions: sc, 120 h, female albino mice 8 g-24 g, infected intraperitoneally with E. coli strain 1075, treated subcutaneously, survival on 5th day after infection, highest dosage tested usually 300 mg/kg
Method: Protecting Effect in Experimental Mice Infections:
For a reference's sake, with regard to antimicrobial activity of the typical compound which falls within the category of the compounds of the formula (I) of the present invention, there are illustrated in vivo tests in which active ingredient are the following compounds.
The test compound against in vivo against the species Escherichia coli was tested using female albino mice weighing 8 g-24 g.
The mice were infected by intraperitoneal route with standardized suitable diluted bacterial suspensions of E. coli strain 1075 and then treated subcutaneously with the test compound.
The ED50 (mg/kg) was determined from the numbers of mice surviving on the 5th day after infection. The highest dosage tested was usually 300 mg/kg.

SMILES: C=C1CCOC2(C(O)C3(C)COC(C)(C)O3)NC(=O)C1(O)NC2=O (centres unmarked) [Compound 1, 2',3'-O,O-isopropylidenebicyclomycin]
- ED50: 65 mg/kg

SMILES: CC(O)(CO)C(O)C12NC(=O)C(O)(NC1=O)C(Br)(CBr)CCO2 (centres unmarked) [Compound 2, 5,11-dibromo-5,11-dihydrobicyclomycin]
- ED50: 60 mg/kg
